In data set [1] the target is T1, MMP-13CD (collagenase-3 catalytic domain) (Homo sapiens, UniProt P45452).
T1 construct: MMP-13CD (collagenase-3 catalytic domain); made in house; host or cells: Escherichia coli
As to the kind of experiment: MMP inhibition, thiopeptolide substrate assay. Format: biochemical. The note with it: thiopeptolide substrate Ac-Pro-Leu-Gly-thioester-Leu-Leu-Gly-OEt; catalytic domain expressed in Escherichia coli from a synthetic gene. On the procedure: (§1) Experiments were carried out with the full-length and catalytic domains of the proteinases. […] IC50 values were determined using a thiopeptolide substrate, Ac-Pro-Leu-Gly-thioester-Leu-Leu-Gly-OEt (Ye Q.-Z., Johnson L. L., Hupe D. J., and Baragi V., “Purification and Characterization of the Human Stromelysin Catalytic Domain Expressed in Escherichia coli,” Biochemistry, 1992;31:11231-11235; Ye Q.-Z., Johnson L. L., Yu A. E., and Hupe D., “Reconstructed 19 kDa catalytic domain of gelatinase A is an active proteinase,” Biochemistry, 1995;34:4702-4708.) MMP-13CD was expressed from a synthetic gene and purified from Escherichia coli cell culture according to a previously described method (Ye Q.-Z., Johnson L. L., and Baragi V., “Gene synthesis and expression in E. coli for PUMP, a human matrix metalloproteinase,” Biochemical and Biophysical Research Communications, 1992; 186:143-149).

The target in data set [2] is T2, MMP-14CD (membrane-type MMP-1) (Homo sapiens, UniProt P50281).
T2 construct: Experiments were carried out with the full-length and catalytic domains of the proteinases
The experiment in a line: MMP inhibition, thiopeptolide substrate assay. Format: biochemical. As to conditions: thiopeptolide substrate Ac-Pro-Leu-Gly-thioester-Leu-Leu-Gly-OEt; catalytic domain. As for the experimental part: as §1

Data set [3] addresses T3, MMP-9-FL (gelatinase B full length enzyme) (Homo sapiens, UniProt P14780).
T3 construct: MMP-9-FL (gelatinase B full length enzyme)
As to the kind of experiment: MMP inhibition, thiopeptolide substrate assay. Format: biochemical. The note with it: thiopeptolide substrate Ac-Pro-Leu-Gly-thioester-Leu-Leu-Gly-OEt. On the procedure:
as §1

Data set [4] concerns the target MMP-2CD (gelatinase A catalytic domain) (Homo sapiens, UniProt P08253). The experiment in a line: MMP inhibition, thiopeptolide substrate assay. Format: biochemical. The note with it: thiopeptolide substrate Ac-Pro-Leu-Gly-thioester-Leu-Leu-Gly-OEt. As for the experimental part:
as §1

Data set [5] has as its target T4, MMP-2FL (gelatinase A full length enzyme) (Homo sapiens, UniProt P08253).
T4 construct: MMP-2FL (gelatinase A full length enzyme)
T4 sequence (P08253 110-660): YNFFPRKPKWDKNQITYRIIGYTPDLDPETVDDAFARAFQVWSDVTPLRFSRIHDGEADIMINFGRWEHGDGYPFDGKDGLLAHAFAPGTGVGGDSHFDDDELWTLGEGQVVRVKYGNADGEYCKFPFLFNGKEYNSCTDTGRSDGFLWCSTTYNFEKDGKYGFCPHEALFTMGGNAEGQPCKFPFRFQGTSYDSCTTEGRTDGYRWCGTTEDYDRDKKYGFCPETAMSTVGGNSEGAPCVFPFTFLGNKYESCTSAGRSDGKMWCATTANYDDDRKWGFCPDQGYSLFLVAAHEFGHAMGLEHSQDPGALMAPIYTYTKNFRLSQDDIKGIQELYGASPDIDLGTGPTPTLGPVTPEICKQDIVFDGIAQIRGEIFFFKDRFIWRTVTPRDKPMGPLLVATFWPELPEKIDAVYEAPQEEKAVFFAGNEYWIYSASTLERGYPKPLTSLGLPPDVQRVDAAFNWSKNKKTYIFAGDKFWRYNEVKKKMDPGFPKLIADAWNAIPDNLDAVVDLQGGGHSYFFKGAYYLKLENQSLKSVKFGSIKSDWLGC
As to the kind of experiment: MMP inhibition, thiopeptolide substrate assay. As to conditions: thiopeptolide substrate Ac-Pro-Leu-Gly-thioester-Leu-Leu-Gly-OEt. Format: biochemical. As for the experimental part:
as §1

The target of data set [6] is T5, MMP-3CD (stromelysin-1 catalytic domain) (Homo sapiens, UniProt P08254).
T5 construct: MMP-3CD (stromelysin-1 catalytic domain)
T5 sequence (P08254 100-272 limits assumed): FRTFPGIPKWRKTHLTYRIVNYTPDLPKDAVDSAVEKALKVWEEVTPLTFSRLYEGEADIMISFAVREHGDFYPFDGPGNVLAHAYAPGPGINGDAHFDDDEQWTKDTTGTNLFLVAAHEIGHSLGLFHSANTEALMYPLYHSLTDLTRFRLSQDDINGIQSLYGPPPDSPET
As to the kind of experiment: MMP inhibition, thiopeptolide substrate assay. In kind it is biochemical. As to conditions: thiopeptolide substrate Ac-Pro-Leu-Gly-thioester-Leu-Leu-Gly-OEt. On the procedure:
as §1

Data set [7] deals with T6, MMP-1FL (collagenase-1 full length enzyme) (Homo sapiens, UniProt P03956).
T6 construct: MMP-1FL (collagenase-1 full length enzyme)
T6 sequence (P03956 100-469): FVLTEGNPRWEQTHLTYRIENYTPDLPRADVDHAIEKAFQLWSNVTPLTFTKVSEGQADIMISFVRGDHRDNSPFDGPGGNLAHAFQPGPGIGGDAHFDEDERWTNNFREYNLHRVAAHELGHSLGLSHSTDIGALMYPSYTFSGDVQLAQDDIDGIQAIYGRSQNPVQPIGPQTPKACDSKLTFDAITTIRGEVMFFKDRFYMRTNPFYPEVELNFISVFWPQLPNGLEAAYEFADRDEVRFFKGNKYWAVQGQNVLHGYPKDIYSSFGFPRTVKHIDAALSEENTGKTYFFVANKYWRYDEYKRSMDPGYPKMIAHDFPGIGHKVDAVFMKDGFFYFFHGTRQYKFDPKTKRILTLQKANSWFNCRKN
The experiment in a line: MMP inhibition, thiopeptolide substrate assay. In kind it is biochemical. As to conditions: thiopeptolide substrate Ac-Pro-Leu-Gly-thioester-Leu-Leu-Gly-OEt. As for the experimental part: as §1

The target of data set [8] is T7, MMP-7FL (matrilysin full length enzyme) (Homo sapiens, UniProt P09237).
T7 construct: MMP-7FL (matrilysin full length enzyme)
T7 sequence (P09237 95-267): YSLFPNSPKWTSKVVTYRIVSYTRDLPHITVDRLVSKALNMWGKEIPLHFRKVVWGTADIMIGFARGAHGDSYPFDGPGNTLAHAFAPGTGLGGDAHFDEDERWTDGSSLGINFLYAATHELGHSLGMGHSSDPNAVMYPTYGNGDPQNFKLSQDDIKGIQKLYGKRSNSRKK
The experiment in a line: MMP inhibition, thiopeptolide substrate assay. Format: biochemical. The note with it: thiopeptolide substrate Ac-Pro-Leu-Gly-thioester-Leu-Leu-Gly-OEt. On the procedure: as §1

The structures appear in SMILES notation.

Among the data in US6350885B1, “Tricyclic heteroaromatics and their derivatives as inhibitors of matrix metalloproteinases” (Warner-Lambert Company, priority 1998, dated 2002) are IC50 and melting point values, retold here.

For orientation: IC50 means the concentration needed to halve the response being measured. As usually defined, the melting point is the temperature, or range, at which the solid turns liquid.

Chain of MMP-2CD (gelatinase A catalytic domain) (P08253 with tags, fused parts or gaps DEL222-396): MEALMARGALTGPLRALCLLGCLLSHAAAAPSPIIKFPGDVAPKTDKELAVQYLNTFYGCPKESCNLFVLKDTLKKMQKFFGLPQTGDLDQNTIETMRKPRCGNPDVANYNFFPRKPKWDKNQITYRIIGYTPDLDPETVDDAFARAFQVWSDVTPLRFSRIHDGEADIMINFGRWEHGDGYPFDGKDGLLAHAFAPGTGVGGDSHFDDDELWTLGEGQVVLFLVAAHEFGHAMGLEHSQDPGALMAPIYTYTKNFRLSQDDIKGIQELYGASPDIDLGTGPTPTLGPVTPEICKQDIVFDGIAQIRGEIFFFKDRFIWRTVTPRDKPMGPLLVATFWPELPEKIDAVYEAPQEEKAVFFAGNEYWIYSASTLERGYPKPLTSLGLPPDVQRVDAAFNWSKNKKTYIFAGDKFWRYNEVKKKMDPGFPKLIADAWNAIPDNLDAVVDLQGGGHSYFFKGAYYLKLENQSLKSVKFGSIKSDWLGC
T3 sequence (P14780 94-707): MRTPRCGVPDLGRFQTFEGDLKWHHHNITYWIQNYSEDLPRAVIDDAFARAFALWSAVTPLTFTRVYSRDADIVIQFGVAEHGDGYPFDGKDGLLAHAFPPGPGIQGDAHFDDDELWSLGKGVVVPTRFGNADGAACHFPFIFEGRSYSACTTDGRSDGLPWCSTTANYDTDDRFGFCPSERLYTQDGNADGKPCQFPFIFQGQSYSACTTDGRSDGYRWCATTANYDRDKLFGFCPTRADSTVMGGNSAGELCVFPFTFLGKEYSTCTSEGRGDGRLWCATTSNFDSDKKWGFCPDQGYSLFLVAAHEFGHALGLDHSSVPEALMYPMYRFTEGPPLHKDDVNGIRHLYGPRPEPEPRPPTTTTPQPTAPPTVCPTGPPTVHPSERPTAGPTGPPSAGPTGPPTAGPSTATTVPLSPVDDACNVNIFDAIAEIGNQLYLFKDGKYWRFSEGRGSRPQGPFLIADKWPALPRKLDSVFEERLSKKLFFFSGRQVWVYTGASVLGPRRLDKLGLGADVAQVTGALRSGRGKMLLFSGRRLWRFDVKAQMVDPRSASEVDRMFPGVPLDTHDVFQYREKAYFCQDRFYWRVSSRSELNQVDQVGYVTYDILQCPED

In turn, `O=C(O)CCC(=NO)c1ccc2c3c(oc2c1)CCCC3` [Example 1, 4-Hydroxyimino4-(6,7,8,9-tetrahydro-dibenzofuran-3-yl)-butyric acid] displayed a melting point of 164 °C. Further, half-maximal inhibition in [1] (IC50) required 1.21 µM. Besides, the IC50 in data set [2] amounted to 0.24 µM. This compound showed an IC50 in data set [3] of 32 µM. This compound also gave an IC50 in data set [4] of 0.0183 µM. The same compound returned an IC50 in [5] of 0.0595 µM. Inhibition in [6] was half-maximal at 0.114 µM (IC50).

Turning to `O=C(CC(CCCc1ccccc1)C(=O)O)c1ccc2c3c(oc2c1)CCCC3` (stereo not shown) [Example 2, 2-[2-Oxo-2-(6,7,8,9-tetrahydro-dibenzofuran-3-yl)-ethyl]-5-phenyl-pentanoic acid], the IC50 is 9.7 µM in [1]; 0.82 µM in data set [2]; 67 µM in data set [7]; 0.096 µM in data set [4]; 0.445 µM in data set [5]; 0.13 µM in data set [6]. For the same compound, the IC50 in [8] was 84 µM.

As to `CN1C(=O)N(CC(CC(=O)c2ccc3c4c(oc3c2)CCCC4)C(=O)O)C(=O)C1(C)C` (stereo not shown) [Example 3, 4-Oxo-4-(6,7,8,9-tetrahydro-dibenzofuran-3-yl)-2-(3,4,4-trimethyl-2,5-dioxo-imidazolidin-1-ylmethyl)-butyric acid], the IC50 in data set [1] was determined as 1.42 µM; in data set [2], 2 µM; in [3], 14 µM; in data set [7] it was 31 µM; in data set [4] it was 0.0585 µM; in data set [5], 0.945 µM. Besides, the IC50 in [6] was found to be 0.315 µM; in data set [8] it was 86 µM.
